ChEMBL document CHEMBL1201862, “PubChem BioAssay data set” (2004)
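Compound exposure: 48 hours, 5 concentrations, 96-well plates. The concentration for 50% growth inhibition is given as GI50.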 Active and inactive are the calls of the source. Rule as the data show it: active = GI50 up to about 1.1 µM and inactive = higher.

How the values were obtained:
Assay in all cases: NCI anticancer screen, dose series, 48 h
K562 = system: K562
SN12C = system: SN12C
MDA-MB-231 = system: MDA-MB-231
A549 = system: A549
SK-MEL-28 = system: SK-MEL-28
HCT-116 = system: HCT-116
UACC-257 = system: UACC-257
SF-295 = system: SF-295
T47D = system: T47D
EKVX = system: EKVX
SW-620 = system: SW-620
SK-MEL-5 = system: SK-MEL-5
OVCAR-8 = system: OVCAR-8
Hs-578T = system: Hs-578T
SF-539 = system: SF-539
M14 = system: M14
786-0 = system: 786-0
NCI-H23 = system: NCI-H23
BT-549 = system: BT-549
OVCAR-4 = system: OVCAR-4
HL-60 = system: HL-60
KM12 = system: KM12
NCI-H460 = system: NCI-H460
UACC-62 = system: UACC-62
HT-29 = system: HT-29
NCI-H226 = system: NCI-H226
PC-3 = system: PC-3
HOP-62 = system: HOP-62
HCC 2998 = system: HCC 2998
RXF 393 = system: RXF 393
U-251 = system: U-251
Malme-3M = system: Malme-3M
ACHN = system: ACHN
SNB-75 = system: SNB-75
SK-OV-3 = system: SK-OV-3
MCF7 = system: MCF7
CAKI-1 = system: CAKI-1
TK-10 = system: TK-10
NCI/ADR-RES = system: NCI/ADR-RES
DU-145 = system: DU-145
NCI-H522 = system: NCI-H522
SF-268 = system: SF-268
COLO 205 = system: COLO 205
OVCAR-3 = system: OVCAR-3
HCT-15 = system: HCT-15
IGROV-1 = system: IGROV-1
A498 = system: A498
MDA-N = system: MDA-N
RPMI-8226 = system: RPMI-8226
HOP-92 = system: HOP-92
SNB-19 = system: SNB-19
MOLT-4 = system: MOLT-4
SK-MEL-2 = system: SK-MEL-2
MDA-MB-435 = system: MDA-MB-435
CCRF-CEM = system: CCRF-CEM
OVCAR-5 = system: OVCAR-5
LOX IMVI = system: LOX IMVI
UO-31 = system: UO-31

Measured: GI50

NC(=S)NS(=O)(=O)c1ccc(F)cc1F
> 100 µM: HCT-15
inactive: K562 > 100 µM | SN12C > 100 µM | MDA-MB-231 > 100 µM | A549 > 100 µM | SK-MEL-28 > 100 µM | HCT-116 > 100 µM | UACC-257 > 100 µM | SF-295 > 100 µM | T47D > 100 µM | EKVX > 100 µM | SW-620 > 100 µM | SK-MEL-5 > 100 µM | OVCAR-8 > 100 µM | Hs-578T > 100 µM | SF-539 > 100 µM | M14 > 100 µM | 786-0 > 100 µM | NCI-H23 > 100 µM | BT-549 > 100 µM | OVCAR-4 > 100 µM | HL-60 > 100 µM | KM12 > 100 µM | NCI-H460 > 100 µM | UACC-62 > 100 µM | HT-29 > 100 µM | NCI-H226 > 100 µM | PC-3 > 100 µM | HOP-62 > 100 µM | HCC 2998 > 100 µM | RXF 393 > 100 µM | U-251 > 100 µM | Malme-3M > 100 µM | ACHN > 100 µM | SNB-75 > 100 µM | SK-OV-3 > 100 µM | MCF7 > 100 µM | CAKI-1 > 100 µM | TK-10 > 100 µM | NCI/ADR-RES > 100 µM | DU-145 > 100 µM | NCI-H522 > 100 µM | SF-268 > 100 µM | COLO 205 > 100 µM | OVCAR-3 > 100 µM | IGROV-1 > 100 µM | A498 > 100 µM | MDA-N > 100 µM | RPMI-8226 > 100 µM | HOP-92 > 100 µM | SNB-19 > 100 µM | MOLT-4 > 100 µM | SK-MEL-2 > 100 µM | MDA-MB-435 > 100 µM | CCRF-CEM > 100 µM | OVCAR-5 > 100 µM | LOX IMVI > 100 µM

Nc1ccc2nc3ccc(=O)cc-3n(-c3ccccc3)c2c1
> 100 µM: HCT-15
inactive: K562 > 100 µM | SN12C > 100 µM | MDA-MB-231 38.7 µM | A549 > 100 µM | SK-MEL-28 > 100 µM | HCT-116 34.4 µM | SF-295 > 100 µM | T47D > 100 µM | EKVX > 100 µM | SW-620 > 100 µM | SK-MEL-5 > 100 µM | OVCAR-8 > 100 µM | Hs-578T 75.9 µM | SF-539 31.6 µM | M14 > 100 µM | 786-0 35.8 µM | NCI-H23 > 100 µM | BT-549 73.8 µM | OVCAR-4 > 100 µM | HL-60 59 µM | KM12 7.18 µM | NCI-H460 > 100 µM | UACC-62 > 100 µM | HT-29 > 100 µM | NCI-H226 67.9 µM | PC-3 91.4 µM | HOP-62 30.5 µM | HCC 2998 > 100 µM | RXF 393 59.8 µM | U-251 86.3 µM | Malme-3M > 100 µM | ACHN > 100 µM | SNB-75 28.2 µM | SK-OV-3 > 100 µM | MCF7 93.3 µM | NCI/ADR-RES > 100 µM | DU-145 > 100 µM | NCI-H522 38.1 µM | SF-268 58.2 µM | COLO 205 41 µM | OVCAR-3 31.8 µM | IGROV-1 45.5 µM | A498 32.8 µM | MDA-N > 100 µM | RPMI-8226 39.5 µM | HOP-92 > 100 µM | SNB-19 > 100 µM | UO-31 78.9 µM | MOLT-4 > 100 µM | SK-MEL-2 > 100 µM | MDA-MB-435 66.7 µM | CCRF-CEM 62.8 µM | OVCAR-5 > 100 µM
